Columns and labels:
[1] = target: T1, Cbl-b (Homo sapiens, UniProt Q13191); test: Cbl-b Degradation Method B (Nano-Glo HiBiT lytic detection); assay type: cell-based; conditions: Cbl-b-HiBit KI Jurkat Cells, incubated at least 6-24 hours; for Dmax / Cbl-b Degredation Method B Dmax (%): maximum degradation observed; for Dmax: read-out: Cbl-b Degredation Method B Dmax (%)
T1 construct: Cbl-b-HiBit KI Jurkat Cells were purchased from Promega; host or cells: Cbl-b-HiBiT knock-in Jurkat cells
Method in brief: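 An 11-point, 3-fold compound dilution was applied for 6-24 hours to Jurkat cells carrying HiBiT-tagged endogenous Cbl-b. Lytic HiBiT luminescence quantified residual protein. Outputs are DC50 and Dmax relative to DMSO control.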

[2] = target: T1, Cbl-b; test: Cbl-b Degradation Method A (FACS, anti-Cbl-b antibody staining); assay type: cell-based; conditions: for Dmax: Jurkat, read-out: Cbl-b Degredation Method A Dmax (%)
Method in brief: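 Readout is flow cytometry of fixed, permeabilized cells immunostained for Cbl-b (primary 1:200, AF488 secondary). Cells were Cbl-b-HiBit knock-in Jurkat, exposed to compound ≥20 h at 37 °C; half-maximal degradation concentration (DC50) and maximal degradation (Dmax) calculated relative to control.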

[3] = half maximal degradation, read-out: Cbl-b Degredation Method B IC50
[4] = Cbl-b-HiBit KI Jurkat Cells, incubated at least 20 hours, half maximal degradation, read-out: Cbl-b Degredation Method A IC50
[5] = Cbl-b-HiBit KI Jurkat Cells, incubated at least 20 hours, maximum degradation observed

T1 sequence (Q13191 whole entry): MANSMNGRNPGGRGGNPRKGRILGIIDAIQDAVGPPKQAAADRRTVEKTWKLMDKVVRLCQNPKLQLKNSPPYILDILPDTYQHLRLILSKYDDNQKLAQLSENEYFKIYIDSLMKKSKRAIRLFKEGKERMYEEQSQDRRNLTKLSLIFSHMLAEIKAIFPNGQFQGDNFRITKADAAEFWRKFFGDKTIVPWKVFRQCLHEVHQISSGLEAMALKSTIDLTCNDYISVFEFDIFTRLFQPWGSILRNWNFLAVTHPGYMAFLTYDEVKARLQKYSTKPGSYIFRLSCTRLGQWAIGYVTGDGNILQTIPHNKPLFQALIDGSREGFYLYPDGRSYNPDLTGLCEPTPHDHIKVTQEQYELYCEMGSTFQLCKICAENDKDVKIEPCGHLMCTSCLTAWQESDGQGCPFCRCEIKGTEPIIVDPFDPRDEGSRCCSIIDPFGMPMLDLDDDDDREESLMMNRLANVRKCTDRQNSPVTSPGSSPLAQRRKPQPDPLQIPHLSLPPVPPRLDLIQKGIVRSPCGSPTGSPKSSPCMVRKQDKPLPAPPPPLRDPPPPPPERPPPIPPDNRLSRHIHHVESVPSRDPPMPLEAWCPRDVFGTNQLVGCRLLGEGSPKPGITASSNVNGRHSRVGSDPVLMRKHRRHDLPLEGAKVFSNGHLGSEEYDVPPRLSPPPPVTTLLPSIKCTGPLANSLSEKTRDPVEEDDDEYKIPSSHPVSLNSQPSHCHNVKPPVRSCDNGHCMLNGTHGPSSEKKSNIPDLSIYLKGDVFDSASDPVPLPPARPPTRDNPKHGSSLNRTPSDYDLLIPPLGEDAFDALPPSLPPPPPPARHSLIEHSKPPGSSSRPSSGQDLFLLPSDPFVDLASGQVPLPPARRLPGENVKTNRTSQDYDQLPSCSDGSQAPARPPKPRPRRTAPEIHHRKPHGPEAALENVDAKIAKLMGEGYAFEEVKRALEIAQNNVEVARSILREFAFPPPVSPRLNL

Row | Compound | DC50 [1, 3] [nM] | Dmax [1] [%] | DC50 [2, 4] [nM] | Dmax [2, 5] [%] | Cbl-b Degredation Method B Dmax (%) [1] | IC50 [1, 3] [nM] | IC50 [2, 4] [nM] | Cbl-b Degredation Method A Dmax (%) [2, 5] | Dmax [2] [%]
1 | CC1c2nc(N3CCC(OC4CCC(CN5CCN(Cc6cc7c(c(C(F)(F)F)c6)CN(c6cccc(C8(Cc9nncn9C)COC8)c6)C7=O)C[C@H]5C)CC4)CC3)ccc2C(=O)N1C1CCC(=O)NC1=O (stereo partly drawn) [Example 238, 3-[7-methyl-5-oxo-2-(4-{[(1rs,4rs)-4-{[(2R)-2-methyl-4-{[2-(3-{3-[(4-methyl-4H-1,2,4-triazol-3-yl)methyl]oxetan-3-yl}phenyl)-3-oxo-7-(trifluoromethyl)-2,3-dihydro-1H-isoindol-5-yl]methyl}piperazin-1-yl]methyl}cyclohexyl]oxy}piperidin-1-yl)-5H,6H,7H-pyrrolo[3,4-b]pyridin-6-yl]piperidine-2,6-dione] | < 5 | 35 to 70 | 5 to 50 | 35 to 70 | – | – | – | – | –
2 | CC1c2c(cc(CN3CCC[C@H](CN4CCN(C[C@H]5CC[C@H](OC6CCN(c7ccc8c(c7F)CN(C7CCC(=O)NC7=O)C8=O)CC6)CC5)CC4(C)C)C3)cc2C(F)(F)F)C(=O)N1c1cccc(C2(Cc3nncn3C)COC2)c1 (stereo partly drawn) [Example 276, 3-(5-(4-(((1S,4r)-4-((3,3-dimethyl-4-(((3S)-1-((1-methyl-2-(3-(3-((4-methyl-4H-1,2,4-triazol-3-yl)methyl)oxetan-3-yl)phenyl)-3-oxo-7-(trifluoromethyl)isoindolin-5-yl)methyl)piperidin-3-yl)methyl)piperazin-1-yl)methyl)cyclohexyl)oxy)piperidin-1-yl)-4-fluoro-1-oxoisoindolin-2-yl)piperidine-2,6-dione] | 5 to 50 | – | 5 to 50 | < 35 | C (C ≤ 35) | – | – | – | –
3 | CC1c2nc(N3CCC(CN4CCN(CC5CCN(Cc6cc7c(c(C(F)(F)F)c6)CN(c6cccc([C@]8(Cc9nncn9C)C[C@@H](C#N)C8)c6)C7=O)C(C)(C)C5)CC4)CC3)ccc2C(=O)N1C1CCC(=O)NC1=O (stereo partly shown) [Example 277, (1r, 3r)-3-(3-{6-[(4-{[4-({1-[6-(2,6-dioxopiperidin-3-yl)-7-methyl-5-oxo-5H, 6H, 7H-pyrrolo [3,4-b]pyridin-2-yl]piperidin-4-yl}methyl)piperazin-1-yl]methyl}-2,2-dimethylpiperidin-1-yl)methyl]-1-oxo-4-(trifluoromethyl)-2,3-dihydro-1H-isoindol-2-yl}phenyl)-3-[(4-methyl-4H-1,2,4-triazol-3-yl)methyl]cyclobutane-1-carbonitrile] | < 5 | – | 5 to 50 | – | C (C ≤ 35) | – | – | – | < 35
4 | CC1c2nc(N3CCC(O[C@H]4CC[C@H](CN5CCN(Cc6cc7c(c(C(F)(F)F)c6)CN(c6cccc(C8(c9nncn9C)CCO8)c6)C7=O)C(C)(C)C5)CC4)CC3)ccc2C(=O)N1C1CCC(=O)NC1=O (stereo partly shown) [Example 281, 3-[7-methyl-5-oxo-2-(4-{[(1r, 4r)-4-({3,3-dimethyl-4-[(2-{3-[2-(4-methyl-4H-1,2,4-triazol-3-yl)oxetan-2-yl]phenyl}-3-oxo-7-(trifluoromethyl)-2,3-dihydro-1H-isoindol-5-yl)methyl]piperazin-1-yl}methyl)cyclohexyl]oxy}piperidin-1-yl)-5H, 6H, 7H-pyrrolo[3,4-b]pyridin-6-yl]piperidine-2,6-dione] | < 5 | – | 5 to 50 | 35 to 70 | C (C ≤ 35) | – | – | – | –
5 | Cn1cnnc1CC1(c2cccc(N3Cc4c(cc(CN5CCC[C@@H](CN6CCN(C[C@H]7CC[C@H](OC8CCN(c9ccc%10c(c9F)CN(C9CCC(=O)NC9=O)C%10=O)CC8)CC7)CC6(C)C)C5)cc4C(F)(F)F)C3=O)c2)COC1 (stereo partly drawn) [Example 286, 3-[4-fluoro-1-oxo-5-(4-{[(1r,4r)-4-[(3,3-dimethyl-4-{[(3R)-1-{[2-(3-{3-[(4-methyl-4H-1,2,4-triazol-3-yl)methyl]oxetan-3-yl}phenyl)-3-oxo-7-(trifluoromethyl)-2,3-dihydro-1H-isoindol-5-yl]methyl}piperidin-3-yl]methyl}piperazin-1-yl)methyl]cyclohexyl]oxy}piperidin-1-yl)-2,3-dihydro-1H-isoindol-2-yl]piperidine-2,6-dione] | < 5 | – | 50 to 500 | 35 to 70 | C (C ≤ 35) | – | – | – | –
6 | CC(C)n1c(=O)n(C2CCC(=O)NC2=O)c2cccc(N3CCC(O[C@H]4CC[C@H](CN5CCCN(Cc6cc7c(c(C(F)(F)F)c6)CN(c6cccc([C@]8(Cc9nncn9C)C[C@@H](C#N)C8)c6)C7=O)CC5)CC4)CC3)c21 (stereo partly shown) [Example 289, (1r,3r)-3-[(4-methyl-4H-1,2,4-triazol-3-yl)methyl]-3-(3-{1-oxo-6-[(4-{[(1r,4r)-4-({1-[1-(2,6-dioxopiperidin-3-yl)-2-oxo-3-(propan-2-yl)-2,3-dihydro-1H-1,3-benzodiazol-4-yl]piperidin-4-yl}oxy)cyclohexyl]methyl}-1,4-diazepan-1-yl)methyl]-4-(trifluoromethyl)-2,3-dihydro-1H-isoindol-2-yl}phenyl)cyclobutane-1-carbonitrile] | < 5 | – | 5 to 50 | 35 to 70 | C (C ≤ 35) | – | – | – | –

Continued, in another order:

Row | DC50 [1, 3] [nM] | Dmax [1] [%] | DC50 [2, 4] [nM] | Dmax [2, 5] [%] | Cbl-b Degredation Method B Dmax (%) [1] | IC50 [1, 3] [nM] | IC50 [2, 4] [nM] | Cbl-b Degredation Method A Dmax (%) [2, 5] | Compound | Dmax [2] [%]
7 | < 5 | > 70 | < 5 | > 70 | – | – | – | – | C[C@H]1CN(Cc2cc3c(c(C(F)(F)F)c2)CN(c2cccc(C4(Cc5nncn5C)COC4)c2)C3=O)CCN1CC1CCC(OC2CCN(c3ccc4c(c3F)CN(C3CCC(=O)NC3=O)C4=O)CC2)CC1 (stereo partly drawn) [Example 237, 3-[4-fluoro-1-oxo-5-(4-{[(1rs,4rs)-4-{[(2S)-2-methyl-4-{[2-(3-{3-[(4-methyl-4H-1,2,4-triazol-3-yl)methyl]oxetan-3-yl}phenyl)-3-oxo-7-(trifluoromethyl)-2,3-dihydro-1H-isoindol-5-yl]methyl}piperazin-1-yl]methyl}cyclohexyl]oxy}piperidin-1-yl)-2,3-dihydro-1H-isoindol-2-yl]piperidine-2,6-dione] | –
8 | – | – | – | – | C (C ≤ 35) | 5 to 50 | 50 to 500 | B (35 < B < 70) | Cc1cc(N2CCC(C(C)(C)N3CCC4(CC3)CN(c3cc5c(c(C(F)(F)F)c3)CN(c3cccc([C@]6(Cc7nncn7C)C[C@@H](C#N)C6)c3)C5=O)C4)CC2)c(F)c2c1C(=O)N([C@@H]1CCC(=O)NC1=O)C2 [Example 278, (1r, 3r)-3-(3-{6-[7-(2-{1-[2-(2,6-dioxopiperidin-3-yl)-4-fluoro-7-methyl-1-oxo-2,3-dihydro-1H-isoindol-5-yl]piperidin-4-yl}propan-2-yl)-2,7-diazaspiro[3.5]nonan-2-yl]-1-oxo-4-(trifluoromethyl)-2,3-dihydro-1H-isoindol-2-yl}phenyl)-3-[(4-methyl-4H-1,2,4-triazol-3-yl)methyl]cyclobutane-1-carbonitrile] | –
9 | 5 to 50 | – | 50 to 500 | 35 to 70 | C (C ≤ 35) | – | – | – | CC(C)n1c(=O)n(C2CCC(=O)NC2=O)c2cccc(N3CCC(CN4CCC5(CC4)CN(Cc4ccc(-c6cc7c(c(C(F)(F)F)c6)CN(c6cccc(C8(Cc9nncn9C)CC(C#N)C8)c6)C7=O)cc4)C5)CC3)c21 (stereo not shown) [Example 283, 3-[3-[6-[4-[[7-[[1-[1-(2,6-dioxo-3-piperidyl)-3-isopropyl-2-oxo-benzimidazol-4-yl]-4-piperidyl]methyl]-2,7-diazaspiro[3.5]nonan-2-yl]methyl]phenyl]-1-oxo-4-(trifluoromethyl)isoindolin-2-yl]phenyl]-3-[(4-methyl-1,2,4-triazol-3-yl)methyl]cyclobutanecarbonitrile] | –
10 | < 5 | – | 50 to 500 | 35 to 70 | C (C ≤ 35) | – | – | – | CC(C)n1c(=O)n(C2CCC(=O)NC2=O)c2cccc(N3CCC(CN4CCC5(CC4)CN(c4cc6c(c(C(F)(F)F)c4)CN(c4cccc([C@]7(Cc8nncn8C)C[C@@H](C#N)C7)c4)C6=O)C5)CC3)c21 (stereo partly shown) [Example 284, (1r,3r)-3-(3-{6-[7-({1-[1-(2,6-dioxopiperidin-3-yl)-2-oxo-3-(propan-2-yl)-2,3-dihydro-1H-1,3-benzodiazol-4-yl]piperidin-4-yl}methyl)-2,7-diazaspiro[3.5]nonan-2-yl]-1-oxo-4-(trifluoromethyl)-2,3-dihydro-1H-isoindol-2-yl}phenyl)-3-[(4-methyl-4H-1,2,4-triazol-3-yl)methyl]cyclobutane-1-carbonitrile] | –
11 | 50 to 500 | – | 5 to 50 | < 35 | – | – | – | – | Cc1cc(N2CCC(O[C@H]3CC[C@H](CN4CCN(Cc5cc(C(F)(F)F)c6cn(-c7cccc(C8(Cc9nncn9C)CC(C#N)C8)c7)nc6c5)C(C)(C)C4)CC3)CC2)c(F)c2c1C(=O)N(C1CCC(=O)NC1=O)C2 (stereo partly shown) [Example 292, (1r**,3r**)-3-(3-{6-[(2,2-dimethyl-4-{[(1r*,4r*)-4-({1-[2-(2,6-dioxopiperidin-3-yl)-4-fluoro-7-methyl-1-oxo-2,3-dihydro-1H-isoindol-5-yl]piperidin-4-yl}oxy)cyclohexyl]methyl}piperazin-1-yl)methyl]-4-(trifluoromethyl)-2H-indazol-2-yl}phenyl)-3-[(4-methyl-4H-1,2,4-triazol-3-yl)methyl]cyclobutane-1-carbonitrile] | –

Source: patent US20260184710A1, “CASITAS B-LINEAGE LYMPHOMA PROTOONCOGENE B (CBL-B) DEGRADING COMPOUNDS AND ASSOCIATED METHODS OF USE” (Arvinas Operations, Inc., priority 2022, published 2026)
